This is an account of results in ChEMBL document CHEMBL3779868, “Tetrahydroprotoberberine alkaloids with dopamine and σ receptor affinity” (Bioorg Med Chem, 2016).

The target of test [1] is T1, D(3) dopamine receptor (Homo sapiens, UniProt P35462). Briefly: Binding affinity to dopamine D3 receptor (unknown origin) by PDSP assay.
Test [2] is described as follows: Binding affinity to sigma2 receptor (unknown origin) by PDSP assay. Details: species or system Homo sapiens; call rule not given here.
Test [3] is filed under the species Homo sapiens. Briefly: Selectivity ratio of Ki for human dopamine D2 receptor to human dopamine D1 receptor.
The target of test [4] is T2, D(2) dopamine receptor (Homo sapiens, UniProt P14416). Briefly: Displacement of [3H]N-methylspiperone from human dopamine D2 receptor by PDSP assay. On the technique in general: Loss of bound radioactivity is the signal in a displacement assay; it reports binding, not function.
The target in test [5] is Sigma non-opioid intracellular receptor 1 (Homo sapiens, UniProt Q99720). Briefly: Displacement of [3H](+)-pentazocine from human sigma1 receptor by PDSP assay.
The target in test [6] is T1, D(3) dopamine receptor. Briefly: Displacement of [3H]N-methylspiperone from human dopamine D3 receptor by PDSP assay.
Test [7] is described as follows: Displacement of [3H]DTG from human sigma2 receptor by PDSP assay.
The species named for test [8] is Homo sapiens. Briefly: Selectivity ratio of Ki for human dopamine D3 receptor to human dopamine D1 receptor.
The target in a further test is D(1A) dopamine receptor (Homo sapiens, UniProt P21728). Briefly: Displacement of [3H][…] from human dopamine D1 receptor by PDSP assay.
Test [9] is filed under the species Homo sapiens. Briefly: Selectivity ratio of Ki for human sigma1 receptor to human sigma2 receptor.
The species named for test [10] is Homo sapiens. Briefly: Selectivity ratio of Ki for human dopamine D2 receptor to human dopamine D3 receptor.
The next test concerns MDA-MB-231. Briefly: Cytotoxicity against human MDA-MB-231 cells assessed as cell viability after 24 hrs by Alamar blue assay. It is filed as functional, cell-based. The settings on record: MDA-MB-231, 24 h. For orientation: The colour change of resazurin is a common sign of viable cells or microbes.
The target of test [11] is T2, D(2) dopamine receptor. Briefly: Displacement of [3H]N-methylspiperone from human dopamine D2 receptor at 50 uM by PDSP assay.

SMILES strings stand for the structures.

Chain of D(1A) dopamine receptor (P21728 whole entry): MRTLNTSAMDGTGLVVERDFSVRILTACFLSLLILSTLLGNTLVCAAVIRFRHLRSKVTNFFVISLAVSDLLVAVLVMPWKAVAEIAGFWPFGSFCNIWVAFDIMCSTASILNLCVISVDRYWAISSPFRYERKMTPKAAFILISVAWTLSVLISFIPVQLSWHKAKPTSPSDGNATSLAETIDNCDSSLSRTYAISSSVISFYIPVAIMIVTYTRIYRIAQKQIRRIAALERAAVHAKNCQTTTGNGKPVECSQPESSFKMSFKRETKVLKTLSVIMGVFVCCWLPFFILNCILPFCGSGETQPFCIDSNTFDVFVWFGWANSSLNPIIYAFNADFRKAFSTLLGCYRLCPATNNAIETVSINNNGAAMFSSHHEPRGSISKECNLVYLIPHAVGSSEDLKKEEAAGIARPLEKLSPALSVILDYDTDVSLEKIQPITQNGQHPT
Chain of Sigma non-opioid intracellular receptor 1 (Q99720 whole entry): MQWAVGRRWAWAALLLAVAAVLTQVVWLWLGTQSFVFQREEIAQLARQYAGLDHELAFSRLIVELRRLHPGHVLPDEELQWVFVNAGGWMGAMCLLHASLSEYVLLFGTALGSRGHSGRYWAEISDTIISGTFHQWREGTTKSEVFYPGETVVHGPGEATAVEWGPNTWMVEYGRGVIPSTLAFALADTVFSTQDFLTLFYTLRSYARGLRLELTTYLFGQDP
T1 sequence (P35462 whole entry): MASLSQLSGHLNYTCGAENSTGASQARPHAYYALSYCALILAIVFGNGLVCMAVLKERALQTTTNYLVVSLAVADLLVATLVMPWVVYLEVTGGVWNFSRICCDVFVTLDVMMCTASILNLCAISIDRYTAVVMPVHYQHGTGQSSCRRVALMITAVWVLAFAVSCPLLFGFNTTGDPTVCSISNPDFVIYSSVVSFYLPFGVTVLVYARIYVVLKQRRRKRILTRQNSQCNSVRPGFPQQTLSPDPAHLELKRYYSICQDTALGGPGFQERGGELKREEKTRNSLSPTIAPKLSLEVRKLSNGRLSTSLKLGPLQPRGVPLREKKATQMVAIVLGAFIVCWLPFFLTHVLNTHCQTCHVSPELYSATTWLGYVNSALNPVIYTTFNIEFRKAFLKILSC
T2 sequence (P14416 whole entry): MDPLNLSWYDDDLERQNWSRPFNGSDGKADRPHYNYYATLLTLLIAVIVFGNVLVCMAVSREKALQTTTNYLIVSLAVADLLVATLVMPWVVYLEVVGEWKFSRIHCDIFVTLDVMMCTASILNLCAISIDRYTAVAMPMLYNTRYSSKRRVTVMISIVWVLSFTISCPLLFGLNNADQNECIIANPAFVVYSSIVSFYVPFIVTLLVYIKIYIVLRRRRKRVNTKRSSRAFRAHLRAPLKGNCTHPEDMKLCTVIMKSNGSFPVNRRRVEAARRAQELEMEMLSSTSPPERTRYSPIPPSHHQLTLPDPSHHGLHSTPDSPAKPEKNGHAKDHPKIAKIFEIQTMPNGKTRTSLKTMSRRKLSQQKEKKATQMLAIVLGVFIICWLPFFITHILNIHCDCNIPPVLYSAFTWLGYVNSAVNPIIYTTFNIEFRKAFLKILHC

By Ki is commonly meant the equilibrium dissociation constant of an inhibitor or competing ligand from its target. As for `COc1cc2c(cc1O)[C@@H]1Cc3ccc(O)c(OC)c3CN1CC2` [STEPHOLIDINE], the inhibition constant Ki at D(3) dopamine receptor [1] came out at 0.03 µM; in test [2], 0.054 µM.
As for `COc1cc2c(cc1O)C1Cc3ccc(O)c(OC)c3CN1CC2` (racemic), the Ratio Ki in the test filed under Homo sapiens [3] is 20.6; in the test filed under Homo sapiens [8] it was 18; in the test listed under Homo sapiens [9] it was 30; in the test listed under Homo sapiens [10], 1.1. Besides, the inhibition constant (Ki) on D(2) dopamine receptor [4] (read-out: Ki) stood at 0.116 µM; in [5], 0.269 µM; on D(3) dopamine receptor [6] it was 0.101 µM; in test [7], 0.009 µM; at D(1A) dopamine receptor, 0.0056 µM.
For the molecule `CCOc1ccc2c(c1OC)CN1CCc3cc(OC)c(O)cc3C1C2` (stereo unspecified), the Ratio Ki in the test listed under Homo sapiens [3] amounted to 12.8; in the test filed under Homo sapiens [8], 3.5; in the test filed under Homo sapiens [9], 95; in the test filed under Homo sapiens [10] it was 3.6. The Ki came to 0.159 µM on D(2) dopamine receptor [4] (read-out: Ki); 0.124 µM in test [5]; 0.044 µM on D(3) dopamine receptor [6]; 0.0013 µM in [7]; 0.0124 µM on D(1A) dopamine receptor.
Broadly, the IC50 is the concentration at which inhibition is half-maximal. On to `COc1cc2c(cc1O)C1Cc3ccc(OC)c(OC)c3CN1CC2` (stereo unspecified), for which the IC50 in the test on MDA-MB-231 was found to be 178 µM. For the same molecule, the Ki on D(3) dopamine receptor [6] is 0.037 µM; in [7] it was 0.001 µM.
For the molecule `CCCCOc1ccc2c(c1OC)CN1CCc3cc(OC)c(O)cc3C1C2` (stereo unspecified), the Ki on D(2) dopamine receptor [4] (read-out: Ki) was determined as 0.121 µM; in test [5] it was 0.013 µM; at D(3) dopamine receptor [6], 0.065 µM; in test [7], 0.049 µM.
On to `COc1cc2c(cc1O)C1Cc3ccc(OCC4CC4)c(OC)c3CN1CC2` (stereo unspecified), for which the results for the inhibitory constant (Ki) (in [5]; in [7]; at D(1A) dopamine receptor) were 0.012 µM, 0.0024 µM and 0.012 µM, respectively.
On to `CCCOc1ccc2c(c1OC)CN1CCc3cc(OC)c(O)cc3C1C2` (stereo unspecified), for which the Ki at D(2) dopamine receptor [4] (read-out: Ki) stood at 0.099 µM; in [5] it was 0.057 µM; on D(3) dopamine receptor [6], 0.053 µM; in [7], 0.0067 µM; on D(1A) dopamine receptor, 0.0078 µM.
By inhibition is commonly meant how much of the control response was suppressed. Low readings indicate little suppression, high ones strong suppression. `CCCCCCOc1ccc2c(c1OC)CN1CCc3cc(OC)c(O)cc3C1C2` (stereo unspecified) had an inhibition at D(2) dopamine receptor [11] of less than 50%. The inhibition constant (Ki) result on D(2) dopamine receptor [4] is “Not Active”; in test [5], 0.037 µM; at D(3) dopamine receptor [6], 0.22 µM; in [7], 0.107 µM; at D(1A) dopamine receptor, 0.04 µM. Moreover, the Ratio Ki in the test listed under Homo sapiens [8] turned out to be 5.5; in the test filed under Homo sapiens [9] it was 0.35.
Regarding `CCN(CCc1ccc(O)c(OC)c1)Cc1cccc(O)c1OC`, the Ki at D(2) dopamine receptor [4] (read-out: Ki) was more than 10 µM; in test [5] it was 0.35 µM; on D(3) dopamine receptor [6], 1.81 µM; in test [7], 0.788 µM; on D(1A) dopamine receptor it was more than 10 µM.
For `COc1cc2c(cc1O)C(C)N(Cc1cccc(O)c1OC)CC2` (stereo unspecified), the inhibition constant (Ki) at D(2) dopamine receptor [4] (read-out: Ki) is 1.1 µM; in [5], 0.13 µM; on D(3) dopamine receptor [6] it was 1.37 µM; in test [7], 0.301 µM; at D(1A) dopamine receptor, 0.833 µM.
`CCCCCOc1ccc2c(c1OC)CN1CCc3cc(OC)c(O)cc3C1C2` (stereo unspecified): the Ratio Ki in the test filed under Homo sapiens [3] is 14.9; in the test listed under Homo sapiens [8] it was 5.3; in the test listed under Homo sapiens [9], 1.22; in the test filed under Homo sapiens [10] it was 2.8. Also, the inhibitory constant (Ki) on D(2) dopamine receptor [4] (read-out: Ki) came out at 0.283 µM; in [5], 0.119 µM; at D(3) dopamine receptor [6] it was 0.101 µM; in test [7] it was 0.097 µM; at D(1A) dopamine receptor, 0.019 µM.
As for `COc1cc2c(cc1O)C1Cc3ccc(OCCCO)c(OC)c3CN1CC2` (stereo unspecified), the Ratio Ki in the test filed under Homo sapiens [3] worked out at 31.5; in the test filed under Homo sapiens [8] it was 16.4; in the test listed under Homo sapiens [9], 13.9; in the test filed under Homo sapiens [10], 1.9. The Ki is 0.211 µM on D(2) dopamine receptor [4] (read-out: Ki); 0.053 µM in test [5]; 0.11 µM at D(3) dopamine receptor [6]; 0.0038 µM in test [7]; 0.0067 µM on D(1A) dopamine receptor.
As to `COc1cc(CCN(C)Cc2cccc(O)c2OC)ccc1O`, the Ki at D(2) dopamine receptor [4] (read-out: Ki) is more than 10 µM; in [5], 0.122 µM; on D(3) dopamine receptor [6], 2.68 µM; in [7], 0.227 µM; at D(1A) dopamine receptor, 3.11 µM.
